Reference: patent publication US20210317072A1, “H2O CRYSTAL FORMS OF A TCA CYCLE INTERMEDIATE CONJUGATE” (IMBRIA PHARMACEUTICALS, INC., priority 2020, published 2021)

What was measured:
Assay type in all cases: physicochemical
[1] = Polymorph screening under 32 conditions / form stability
Excerpt: A comprehensive polymorph screening for a TCA intermediate conjugated to an amino acid which has the structure of Formula (X) was undertaken. The TCA conjugate starting material was characterized by X-ray powder diffraction (XRPD). […] One unique XRPD patterns was observed, which was Type A. Type A is a stable Type At the ambient temperature and humidity.
(§1) For with Type A, polymorph screening experiments were set up under 32 conditions using methods of solid vapor diffusion, slurry conversion at room temperature, slurry conversion at 50° C., and temperature cycling. Polymorph screening experiments were performed using different crystallization or solid transition methods.

[2] = Solid vapor diffusion, precipitates isolated for XRPD analysis
Procedure: as §1
Solid vapor diffusion experiments were conducted in different solvent conditions. The precipitates were isolated for XRPD analysis.

[3] = Slurry conversion at room temperature, solids isolated for XRPD analysis
Procedure: as §1
(§2) Slurry conversion experiments were conducted at room temperate and at 50° C. in different solvent systems. Solids were isolated for XRPD analysis.

[4] = Slurry conversion at 50° C., solids isolated for XRPD analysis
Procedure: as §1, §2

[5] = Temperature cycling polymorph screening; conditions: summary of 6 experiments
Procedure: as §1

Stability of the crystal form ([1]; ambient temperature and humidity): stable
Crystal Type ([1]; total, all 32 screening experiments): Type A, Type A + peak
Solid Form ([2]; anti-solvent Acetone (exp. 818135-06-A5)): Type A
Solid Form ([2]; anti-solvent DCM (exp. 818135-06-A1)): Type A
Solid Form ([2]; anti-solvent DMSO (exp. 818135-06-A4)): Type A
Solid Form ([2]; anti-solvent EtOH (exp. 818135-06-A2)): Type A
Solid Form ([2]; anti-solvent H2O (exp. 818135-06-A6)): Type A
Solid Form ([2]; anti-solvent THF (exp. 818135-06-A3)): Type A
Crystal Type ([2]; summary of 6 experiments): Type A
Solid Form ([3]; Acetone (exp. 818135-04-A2)): Type A
Solid Form ([3]; CAN (exp. 818135-04-A5)): Type A + peak
Solid Form ([3]; DCM (exp. 818135-04-A6)): Type A + peak
Solid Form ([3]; H2O (exp. 818135-04-A7)): Type A
Solid Form ([3]; IPAc (exp. 818135-04-A3)): Type A + peak
Solid Form ([3]; MTBE (exp. 818135-04-A4)): Type A + peak
Solid Form ([3]; MeOH (exp. 818135-04-A1)): Type A
Solid Form ([3]; THF/H2O (0.87:0.13, aW~0.8) (exp. 818135-04-A11)): Type A
Solid Form ([3]; THF/H2O (0.924:0.076, aW~0.6) (exp. 818135-04-A10)): Type A
Solid Form ([3]; THF/H2O (0.956:0.044, aW~0.4) (exp. 818135-04-A9)): Type A + peak
Solid Form ([3]; THF/H2O (0.98:0.02, aW~0.2) (exp. 818135-04-A8)): Type A
Crystal Type ([3]; summary of 11 experiments): Type A, Type A + peak
Solid Form ([4]; slurry at 50° C., 1,4-dioxane (exp. 818135-05-A6)): Type A
Solid Form ([4]; slurry at 50° C., 2-Me THF (exp. 818135-05-A3)): Type A
Solid Form ([4]; slurry at 50° C., CHCL3 (exp. 818135-05-A7)): Type A
Solid Form ([4]; slurry at 50° C., EtOAc (exp. 818135-05-A2)): Type A
Solid Form ([4]; slurry at 50° C., EtOH (exp. 818135-05-A1)): Type A
Solid Form ([4]; slurry at 50° C., MEK (exp. 818135-05-A5)): Type A
Solid Form ([4]; slurry at 50° C., Toluene (exp. 818135-05-A9)): Type A
Solid Form ([4]; slurry at 50° C., n-heptane (exp. 818135-05-A4)): Type A + peak
Crystal Type ([4]; slurry at 50° C., summary of 9 experiments): Type A, Type A + peak
Crystal Type [5]: Type A, Type A + peak
SMILES: N[C@@H](COC(=O)CCC(=O)O)C(=O)O [Type A]
